Assay results taken from PMC10177262, “A Novel CD206 Targeting Peptide Inhibits Bleomycin-Induced Pulmonary Fibrosis in Mice” (Cells, 2023).
Entries after “also recorded” stand apart in the source; their conditions may differ. No end group written: not given here.

What was measured:
[1] = tested on: M2-polarized bone marrow-derived macrophages (BMDM); type: cell-based, murine (C57BL/6 mice); conditions: 48 h
Method: (§1) BMDM cells were isolated as described previously. Briefly, murine monocyte precursor cells were obtained by flushing out the bone marrow from the femur bones of 6–8-week-old healthy C57BL/6 mice. These precursor cells were then differentiated into M1 macrophages using 20 ng/mL of M-CSF and 20 ng/mL of IFN-γ and into M2 macrophages using 20 ng/mL of M-CSF and 20 ng/mL of IL-4 [29]. Human fetal lung fibroblast cell lines MRC5, IMR90, and IMR9 were purchased from the American Type Culture Collection (ATCC, Manassas, VA, USA) and were cultured according to ATCC protocols.
(§2) Cell viability dose-response curves were determined using the Live/Dead Viability/Cytotoxicity Kit (Thermo Fisher Scientific, Waltham, MA, USA, Cat# L3224) using the manufacturer’s protocol. Macrophages were seeded onto glass-bottom 96-well plates and polarized into M1 or M2 populations. Cells were treated with different concentrations of RP-832c for 48 h. After drug treatment, a 100 μL mixture of 2 μM calcein-AM and 4 μM ethidium homodimer was added and incubated for 1 h. The images were taken and analyzed as described in the immunofluorescence assay section below. A total of 200 cells were counted manually from three different random 20× regions across three technical replicates, and the percentage of alive cells was calculated using GraphPad Prism version 8.0. […]

[2] = tested on: M1-polarized bone marrow-derived macrophages (BMDM); assay: Live/Dead cell viability assay, M1 macrophages; type: cell-based, murine (C57BL/6 mice); conditions: 48 h, 0–100 μM
Method: as §1, §2

[3] = tested on: MRC5 human fetal lung fibroblast cell line; assay: Cytotoxicity in lung fibroblasts MRC5; type: cell-based
Method: (§3) The RP-832c (RWKFGGFKWR) peptide was synthesized by PolyPeptide Laboratories, San Diego, CA, USA. BMDM cells were isolated and polarized as described previously. The cell viability of RP-832c-treated macrophages was determined using the live/dead viability assay as previously described. Human fetal lung fibroblast cell lines MRC5, IMR90, and IMR9 were purchased from the American Type Culture Collection (ATCC, Manassas, VA, USA) and were cultured according to ATCC protocols.
as §1, with “Human fetal lung fibroblast cell lines MRC5, IMR90, and IMR9 were purchased from the American Type Culture Collection (ATCC, Manassas, VA, USA) and were cultured according to ATCC protocols.” left out
(§4) Cell viability dose-response curves were determined using the Live/Dead Viability/Cytotoxicity Kit (Thermo Fisher Scientific, Waltham, MA, USA, Cat# L3224) using the manufacturer’s protocol. […] The images were taken and analyzed as described in the immunofluorescence assay section below. A total of 200 cells were counted manually from three different random 20× regions across three technical replicates, and the percentage of alive cells was calculated using GraphPad Prism version 8.0. […]

[4] = tested on: IMR9 human fetal lung fibroblast cell line; assay: Cytotoxicity in lung fibroblasts IMR9 / IMR91; type: cell-based; conditions: 1μM - 100μM; three independent experiments in triplicate
Method: as §3
as §1, with “Human fetal lung fibroblast cell lines MRC5, IMR90, and IMR9 were purchased from the American Type Culture Collection (ATCC, Manassas, VA, USA) and were cultured according to ATCC protocols.” left out
as §4

[5] = matrix and method not stated; no reference given; cited from earlier work
Source text: It is evident from various studies that macrophages are indispensable in tissue repair and subsequent fibrotic changes. […] M1 macrophages initiate host defense responses against pathogens by generating reactive nitric oxide (NO) via inducible nitric oxide synthase (iNOS), and by releasing proinflammatory cytokines and chemokines such as IL-1β, IL-12, IL-23, CCL2, and TNF-α. Meanwhile, M2 macrophages contribute to the pathogenesis of fibrosis ...

[6] = Toxicity study: body and organ weights, blood count, blood chemistry
CD206 in lung tissue = assay: IHC staining of CD206 in lungs of BLM-treated mice; type: in vivo, mouse; conditions: n=3 mice; vs naïve
Method: At the end of the study, the mice were sacrificed using CO2 followed by cervical dislocation (according to IACUC guidelines), and the lungs were collected and fixed in 10% formalin. After 48 h of fixation, the lungs were processed into tissue sections. The tissue sections were stained with both Hematoxylin/Eosin (H&E) (Sigma Aldrich, Burlington, MA, USA) and Masson Trichrome (Abcam, Waltham, MA, USA). Immunostaining was performed with the anti-CD206 (AF2535, 5 ug/mL, R&D Biosciences), TGF-β1 (MAB1835, 10 ug/mL, R&D Biosciences), and α-SMA (MAB1420, 10 ug/mL, R&D Biosciences, Minneapolis, MN, USA) antibodies as previously described. All slides were scanned using a Leica Aperio SC2 scanner and blindly evaluated by two independent pathologists. A total of 10 representative fields of 20× IHC images per tissue section were individually analyzed for the total number of cells/area using a confocal microscope (Olympus, New York, NY, USA). All quantitative data were normalized to appropriate control images.
We first sought to perform in silico validation of CD206 expression at various time points in both bleomycin-treated rat (GSE48455) and mouse models (GSE40151). […] Thus, the BLM model appears to be an appropriate model to determine the role of CD206 in lung fibrosis. […]
by different concentrations (0μM - 100μM) of RP-832c. […]

[7] = biological target: T1, CD206 (macrophage mannose receptor) (UniProt P22897); assay: SPR
T1 chain: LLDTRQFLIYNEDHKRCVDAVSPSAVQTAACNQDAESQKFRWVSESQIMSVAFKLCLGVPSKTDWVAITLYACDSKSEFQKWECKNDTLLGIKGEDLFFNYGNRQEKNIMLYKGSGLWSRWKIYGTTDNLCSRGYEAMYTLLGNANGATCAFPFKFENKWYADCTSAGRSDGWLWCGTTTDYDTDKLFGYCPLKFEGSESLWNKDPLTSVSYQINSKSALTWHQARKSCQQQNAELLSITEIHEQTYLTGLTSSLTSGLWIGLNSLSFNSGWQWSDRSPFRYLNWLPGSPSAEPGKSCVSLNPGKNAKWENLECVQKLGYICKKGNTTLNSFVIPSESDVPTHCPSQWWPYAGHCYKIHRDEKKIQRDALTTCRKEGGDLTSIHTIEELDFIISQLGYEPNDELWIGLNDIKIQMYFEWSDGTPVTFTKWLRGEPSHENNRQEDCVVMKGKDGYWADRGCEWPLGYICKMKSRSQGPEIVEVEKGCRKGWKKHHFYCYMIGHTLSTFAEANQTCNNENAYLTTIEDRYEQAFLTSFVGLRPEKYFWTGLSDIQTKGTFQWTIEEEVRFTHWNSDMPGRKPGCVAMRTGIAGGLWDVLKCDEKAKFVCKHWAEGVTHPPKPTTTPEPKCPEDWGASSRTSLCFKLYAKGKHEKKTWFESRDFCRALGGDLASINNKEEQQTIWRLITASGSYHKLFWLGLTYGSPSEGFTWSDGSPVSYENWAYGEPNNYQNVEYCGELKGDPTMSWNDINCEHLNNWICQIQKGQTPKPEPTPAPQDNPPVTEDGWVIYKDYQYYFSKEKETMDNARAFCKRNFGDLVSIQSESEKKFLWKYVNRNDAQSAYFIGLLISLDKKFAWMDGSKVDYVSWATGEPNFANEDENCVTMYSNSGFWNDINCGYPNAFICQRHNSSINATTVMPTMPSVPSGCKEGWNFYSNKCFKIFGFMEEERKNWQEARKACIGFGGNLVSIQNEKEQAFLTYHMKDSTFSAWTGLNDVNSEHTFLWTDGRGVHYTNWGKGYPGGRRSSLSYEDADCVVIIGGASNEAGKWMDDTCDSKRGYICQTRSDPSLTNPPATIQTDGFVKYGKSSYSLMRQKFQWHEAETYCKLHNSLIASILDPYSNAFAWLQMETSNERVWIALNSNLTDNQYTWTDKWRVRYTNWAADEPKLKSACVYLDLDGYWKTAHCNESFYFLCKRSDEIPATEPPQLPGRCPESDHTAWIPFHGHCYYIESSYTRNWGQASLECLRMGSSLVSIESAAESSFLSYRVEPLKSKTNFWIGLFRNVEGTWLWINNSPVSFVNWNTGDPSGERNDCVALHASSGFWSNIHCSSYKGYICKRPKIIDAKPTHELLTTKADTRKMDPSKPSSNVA

## RWKFGGFKWR [RP-832c]
[1]
  IC50: ~6 µM
[2]
  cytotoxicity in M1 macrophages: only minimal cytotoxicity
[3]; 1μM - 100μM, three independent experiments in triplicate
  cytotoxicity against MRC5 fibroblasts: did not show cytotoxicity; also recorded: lacking any cytotoxicity
[3]; multiple fibroblast cell lines cultured in vitro
  proliferation of fibroblast cell lines: did not observe any significant effect on the proliferation of multiple fibroblast cell lines; also recorded: did not observe direct inhibitory effects on the fibroblast cell lines
[4]
  cytotoxicity against IMR9 (IMR91) fibroblasts: did not show cytotoxicity; also recorded: lacking any cytotoxicity
[5]
  half-life compared to RP-182: increased half-life compared to RP-182
  stability compared to RP-182: enhanced stability
[6]; 50 mg/kg vs saline, p 0.1237
  AST, Mean Difference: −48.8
[6]; 50 mg/kg vs saline, p 0.2623
  Phosphorus, Mean Difference: -1.1 mg/dL
[6]; 50 mg/kg vs saline, p 0.3087
  BUN, Mean Difference: 1.6 mg/dL
[6]; 50 mg/kg vs saline, p 0.3982
  Albumin, Mean Difference: 0.2 g/dL
[6]; 50 mg/kg vs saline, p 0.4413
  Globulin, Mean Difference: 0.1 g/dL
[6]; 50 mg/kg vs saline, p 0.5797
  Total Protein, Mean Difference: 0.3 g/dL
[6]; 50 mg/kg vs saline, p not given
  Creatinine, Mean Difference: 0.0 mg/dL
[6]; 50mg/kg, CD1 mice, vs vehicle
  body weight: did not have any significant effect on body weight
[6]; 50 mg/kg, n = 10, saline n = 5: 0.2 ± 0
  Creatinine: 0.2 ± 0 mg/dL
[6]; 50 mg/kg, n = 10, saline n = 5: 2.6 ± 0.5
  Globulin: 2.7 ± 0.2 g/dL
[6]; 50 mg/kg, n = 10, saline n = 5: 2.9 ± 0.3
  Albumin: 3.1 ± 0.3 g/dL
[6]; 50 mg/kg, n = 10, saline n = 5: 5.6 ± 0.8
  Total Protein: 5.9 ± 0.5 g/dL
[6]; 50 mg/kg, n = 10, saline n = 5: 8.8 ± 2.4
  Phosphorus: 7.7 ± 0.5 mg/dL
[6]; 50 mg/kg, n = 10, saline n = 5: 22.4 ± 3.4
  BUN: 24.0 ± 4.3 mg/dL
[6]; 50 mg/kg, n = 10, saline n = 5: 35.8 ± 18.9
  ALT: 27.2 ± 10 U/L
[6]; 50 mg/kg, n = 10, saline n = 5: 140.0 ± 75.5
  AST: 91.2 ± 21.7 U/L
[6]; 50 mg/kg, vs vehicle
  body weight, organ weights, complete blood count and blood chemistry: no apparent toxicities observed; also recorded: No significant differences were observed
  complete blood cell count: does not significantly affect the complete blood cell count
  organ weights: lacks any significant

## bleomycin
CD206 in lung tissue
  CD206 expression in lungs of BLM-treated mice (IHC): upregulated

## RWKFGGFKWR [RP-832c]
[7]
  Kd: ~3.5 µM
